Data published in ChEMBL document CHEMBL4184197 (Bioorg Med Chem, 2018).

What was measured:
[1] = biological target: Adrenergic receptor alpha-1 (Rattus norvegicus) (UniProt P15823+P23944+P43140); experiment: Binding affinity to rat alpha1 receptor at 10 uM after 60 mins by scintillation counting analysis relative to control; format: protein assay
[2] = biological target: Beta-2 adrenergic receptor (Homo sapiens) (UniProt P07550); experiment: Binding affinity to recombinant human beta2 receptor at 10 uM after 120 mins by scintillation counting analysis relative to control
Chain of Beta-2 adrenergic receptor (Homo sapiens) (P07550 whole entry, looked up): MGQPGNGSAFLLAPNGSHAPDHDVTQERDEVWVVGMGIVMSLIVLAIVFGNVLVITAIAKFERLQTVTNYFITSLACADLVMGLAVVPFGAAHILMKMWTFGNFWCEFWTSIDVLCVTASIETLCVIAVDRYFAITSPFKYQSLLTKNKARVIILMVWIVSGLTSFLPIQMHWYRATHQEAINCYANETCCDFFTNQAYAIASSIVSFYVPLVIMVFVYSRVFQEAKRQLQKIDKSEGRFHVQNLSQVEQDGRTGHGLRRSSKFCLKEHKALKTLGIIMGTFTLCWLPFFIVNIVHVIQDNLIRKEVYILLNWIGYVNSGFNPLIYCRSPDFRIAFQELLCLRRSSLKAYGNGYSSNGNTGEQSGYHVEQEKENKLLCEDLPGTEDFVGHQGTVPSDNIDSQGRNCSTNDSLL

[3] = biological target: Beta-2 adrenergic receptor (Homo sapiens) (UniProt P07550); experiment: Binding affinity to recombinant human beta 2 adrenoceptor at 10 uM after 120 mins by scintillation counting analysis relative to control
[4] = biological target: D(1A) dopamine receptor (Homo sapiens) (UniProt P21728); experiment: Binding affinity to recombinant human dopamine receptor D1 at 10 uM after 60 mins by scintillation counting analysis relative to control
Chain of D(1A) dopamine receptor (Homo sapiens) (P21728 whole entry): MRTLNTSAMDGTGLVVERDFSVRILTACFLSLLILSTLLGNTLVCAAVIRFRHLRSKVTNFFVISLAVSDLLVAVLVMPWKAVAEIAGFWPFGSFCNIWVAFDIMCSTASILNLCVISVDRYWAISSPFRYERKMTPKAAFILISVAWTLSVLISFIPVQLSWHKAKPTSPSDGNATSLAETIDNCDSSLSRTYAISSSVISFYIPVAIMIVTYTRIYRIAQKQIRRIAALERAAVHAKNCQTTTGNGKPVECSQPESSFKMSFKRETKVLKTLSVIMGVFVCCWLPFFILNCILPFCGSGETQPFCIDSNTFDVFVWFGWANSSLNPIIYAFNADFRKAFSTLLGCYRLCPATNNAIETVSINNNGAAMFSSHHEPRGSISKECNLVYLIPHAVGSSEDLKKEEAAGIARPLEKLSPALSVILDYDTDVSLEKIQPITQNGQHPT

[5] = biological target: D(2) dopamine receptor (Homo sapiens) (UniProt P14416); experiment: Binding affinity to recombinant human dopamine receptor D2S at 10 uM after 60 mins by scintillation counting analysis relative to control
Chain of D(2) dopamine receptor (Homo sapiens) (P14416 whole entry): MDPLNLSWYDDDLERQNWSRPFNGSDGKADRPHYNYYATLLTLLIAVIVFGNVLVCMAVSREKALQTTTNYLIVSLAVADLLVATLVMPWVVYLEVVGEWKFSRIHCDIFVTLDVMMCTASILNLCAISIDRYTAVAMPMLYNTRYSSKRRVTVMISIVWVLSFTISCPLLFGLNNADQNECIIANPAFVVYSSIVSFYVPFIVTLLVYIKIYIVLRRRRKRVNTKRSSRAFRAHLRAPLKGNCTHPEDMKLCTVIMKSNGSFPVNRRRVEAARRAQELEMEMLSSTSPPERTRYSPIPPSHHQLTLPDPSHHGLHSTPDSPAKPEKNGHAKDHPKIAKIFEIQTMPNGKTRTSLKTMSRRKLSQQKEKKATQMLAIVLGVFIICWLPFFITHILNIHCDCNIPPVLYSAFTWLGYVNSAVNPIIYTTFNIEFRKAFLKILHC

Rattus norvegicus = species on record: Rattus norvegicus; experiment: Binding affinity to rat GABA receptor at 10 uM after 30 mins by scintillation counting analysis relative to control
[6] = biological target: Tumor necrosis factor receptor superfamily member 1A (Homo sapiens) (UniProt P19438); experiment: Binding affinity to recombinant human TNFalpha receptor at 10 uM after 120 mins by scintillation counting analysis relative to control
[7] = biological target: Histamine H2 receptor (Homo sapiens) (UniProt P25021); experiment: Binding affinity to recombinant human histamine H2 receptor at 10 uM after 120 mins by scintillation counting analysis relative to control
Chain of Histamine H2 receptor (Homo sapiens) (P25021 whole entry): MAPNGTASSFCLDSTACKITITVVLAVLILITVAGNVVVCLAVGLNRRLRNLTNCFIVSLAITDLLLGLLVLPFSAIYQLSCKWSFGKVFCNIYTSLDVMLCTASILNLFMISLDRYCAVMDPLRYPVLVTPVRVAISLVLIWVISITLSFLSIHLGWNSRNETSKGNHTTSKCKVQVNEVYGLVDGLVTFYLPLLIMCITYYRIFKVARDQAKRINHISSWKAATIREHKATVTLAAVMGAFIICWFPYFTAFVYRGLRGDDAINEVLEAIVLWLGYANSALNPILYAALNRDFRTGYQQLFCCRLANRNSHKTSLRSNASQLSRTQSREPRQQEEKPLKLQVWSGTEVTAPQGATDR

[8] = biological target: Muscarinic acetylcholine receptor M5 (Homo sapiens) (UniProt P08912); experiment: Binding affinity to recombinant human muscarinic M5 receptor at 10 uM after 60 mins by scintillation counting analysis relative to control
Chain of Muscarinic acetylcholine receptor M5 (Homo sapiens) (P08912 whole entry): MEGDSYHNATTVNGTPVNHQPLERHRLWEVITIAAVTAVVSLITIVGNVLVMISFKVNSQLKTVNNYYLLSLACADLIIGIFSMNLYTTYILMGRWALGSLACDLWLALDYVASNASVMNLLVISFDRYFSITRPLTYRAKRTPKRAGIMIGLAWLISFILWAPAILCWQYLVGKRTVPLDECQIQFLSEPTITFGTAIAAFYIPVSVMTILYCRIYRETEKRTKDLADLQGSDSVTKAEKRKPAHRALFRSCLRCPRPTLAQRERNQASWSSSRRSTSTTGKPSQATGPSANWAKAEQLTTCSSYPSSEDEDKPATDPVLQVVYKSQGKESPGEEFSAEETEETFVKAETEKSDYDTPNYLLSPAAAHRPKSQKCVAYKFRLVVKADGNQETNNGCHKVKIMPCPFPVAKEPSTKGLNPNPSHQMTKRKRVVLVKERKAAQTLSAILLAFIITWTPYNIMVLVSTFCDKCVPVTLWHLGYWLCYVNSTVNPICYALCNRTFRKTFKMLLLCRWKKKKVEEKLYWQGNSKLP

Homo sapiens [9] = species on record: Homo sapiens; experiment: Binding affinity to phencyclidine receptor (unknown origin) at 10 uM relative to control
Homo sapiens [10] = species on record: Homo sapiens; experiment: Binding affinity to P2X receptor (unknown origin) at 10 uM relative to control
[11] = biological target: 5-hydroxytryptamine receptor 2C (Homo sapiens) (UniProt P28335); experiment: Binding affinity to recombinant human 5-HT2C receptor at 10 uM after 60 mins by scintillation counting analysis relative to control
[12] = biological target: 5-hydroxytryptamine receptor 6 (Homo sapiens) (UniProt P50406); experiment: Binding affinity to recombinant human 5-HT6 receptor at 10 uM after 120 mins by scintillation counting analysis relative to control
[13] = biological target: Somatostatin receptor (Homo sapiens) (UniProt P35346+P30874+P31391+P30872+P32745); experiment: Binding affinity to somatostatin receptor (unknown origin) at 10 uM relative to control; format: protein assay
[14] = biological target: Estrogen receptor (Homo sapiens) (UniProt P03372); experiment: Binding affinity to human ER at 10 uM after 1200 mins by scintillation counting analysis relative to control
Chain of Estrogen receptor (Homo sapiens) (P03372 whole entry): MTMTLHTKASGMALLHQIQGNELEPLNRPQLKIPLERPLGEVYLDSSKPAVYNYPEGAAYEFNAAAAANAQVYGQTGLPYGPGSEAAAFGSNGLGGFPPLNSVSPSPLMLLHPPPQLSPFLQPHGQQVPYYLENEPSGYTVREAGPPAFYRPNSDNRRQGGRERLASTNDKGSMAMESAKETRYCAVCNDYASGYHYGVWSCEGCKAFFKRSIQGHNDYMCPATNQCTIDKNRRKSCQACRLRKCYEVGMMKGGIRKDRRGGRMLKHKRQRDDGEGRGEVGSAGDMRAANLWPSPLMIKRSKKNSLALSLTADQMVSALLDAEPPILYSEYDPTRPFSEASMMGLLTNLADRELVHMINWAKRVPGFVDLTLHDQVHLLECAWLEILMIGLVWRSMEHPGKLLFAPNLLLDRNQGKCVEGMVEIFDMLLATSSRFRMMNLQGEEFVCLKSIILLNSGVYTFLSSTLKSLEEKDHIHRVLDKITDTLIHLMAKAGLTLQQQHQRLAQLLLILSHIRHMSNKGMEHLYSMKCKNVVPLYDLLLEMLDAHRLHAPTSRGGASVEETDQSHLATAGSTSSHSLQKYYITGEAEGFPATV

[15] = biological target: Nitric oxide synthase, inducible (Mus musculus) (UniProt P29477); experiment: Binding affinity to recombinant mouse iNOS at 10 uM after 120 mins by spectrophotometric analysis relative to control
Chain of Nitric oxide synthase, inducible (Mus musculus) (P29477 whole entry): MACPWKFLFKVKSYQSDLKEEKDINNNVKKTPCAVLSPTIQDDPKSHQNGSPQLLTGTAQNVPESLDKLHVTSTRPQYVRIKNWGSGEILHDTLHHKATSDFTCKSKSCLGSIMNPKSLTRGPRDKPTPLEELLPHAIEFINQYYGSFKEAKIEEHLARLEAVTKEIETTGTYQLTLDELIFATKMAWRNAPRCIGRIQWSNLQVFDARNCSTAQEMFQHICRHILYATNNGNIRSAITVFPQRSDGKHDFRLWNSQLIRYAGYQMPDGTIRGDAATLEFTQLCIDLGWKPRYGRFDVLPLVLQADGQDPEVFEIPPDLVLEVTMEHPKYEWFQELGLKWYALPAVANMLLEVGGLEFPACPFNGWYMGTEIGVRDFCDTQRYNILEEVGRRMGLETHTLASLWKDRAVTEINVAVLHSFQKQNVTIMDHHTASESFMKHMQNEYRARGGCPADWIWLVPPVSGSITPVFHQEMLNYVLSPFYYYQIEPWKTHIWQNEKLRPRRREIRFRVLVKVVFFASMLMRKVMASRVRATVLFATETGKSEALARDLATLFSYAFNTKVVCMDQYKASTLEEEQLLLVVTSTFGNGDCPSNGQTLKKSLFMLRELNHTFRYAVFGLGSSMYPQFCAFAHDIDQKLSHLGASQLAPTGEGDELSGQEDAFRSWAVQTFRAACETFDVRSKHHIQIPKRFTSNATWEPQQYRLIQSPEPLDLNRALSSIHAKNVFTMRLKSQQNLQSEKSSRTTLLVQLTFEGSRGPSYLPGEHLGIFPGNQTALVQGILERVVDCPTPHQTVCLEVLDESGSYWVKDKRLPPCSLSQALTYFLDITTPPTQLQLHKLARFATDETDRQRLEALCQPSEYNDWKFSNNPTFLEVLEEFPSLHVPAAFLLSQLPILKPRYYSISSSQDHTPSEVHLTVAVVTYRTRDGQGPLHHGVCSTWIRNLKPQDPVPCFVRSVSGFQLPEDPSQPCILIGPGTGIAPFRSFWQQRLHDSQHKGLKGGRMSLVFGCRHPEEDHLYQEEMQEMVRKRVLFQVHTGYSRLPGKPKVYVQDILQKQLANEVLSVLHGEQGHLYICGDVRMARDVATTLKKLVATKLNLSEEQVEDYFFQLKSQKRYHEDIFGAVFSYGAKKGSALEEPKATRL

Homo sapiens [16] = species on record: Homo sapiens; experiment: Binding affinity to elastase (unknown origin) at 10 uM relative to control
Caspase-3 (Homo sapiens) = Caspase-3 (Homo sapiens) (UniProt P42574); experiment: Binding affinity to recombinant human caspase 3 at 10 uM after 60 mins by fluorescence assay relative to control
Chain of Caspase-3 (Homo sapiens) (P42574 29-175 limits assumed): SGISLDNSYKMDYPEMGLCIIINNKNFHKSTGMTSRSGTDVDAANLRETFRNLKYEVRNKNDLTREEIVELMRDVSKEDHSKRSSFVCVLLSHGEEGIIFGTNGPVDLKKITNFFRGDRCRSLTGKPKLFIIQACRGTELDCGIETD
Chain of Caspase-3 (Homo sapiens) (P42574 176-277 limits assumed): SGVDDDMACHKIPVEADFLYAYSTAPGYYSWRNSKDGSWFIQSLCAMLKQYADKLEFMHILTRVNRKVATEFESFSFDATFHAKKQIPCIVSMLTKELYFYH

[17] = biological target: NAD-dependent protein deacetylase sirtuin-1 (Homo sapiens) (UniProt Q96EB6); experiment: Binding affinity to surtuin-1 (unknown origin) at 10 uM by relative to control
Chain of NAD-dependent protein deacetylase sirtuin-1 (Homo sapiens) (Q96EB6 whole entry): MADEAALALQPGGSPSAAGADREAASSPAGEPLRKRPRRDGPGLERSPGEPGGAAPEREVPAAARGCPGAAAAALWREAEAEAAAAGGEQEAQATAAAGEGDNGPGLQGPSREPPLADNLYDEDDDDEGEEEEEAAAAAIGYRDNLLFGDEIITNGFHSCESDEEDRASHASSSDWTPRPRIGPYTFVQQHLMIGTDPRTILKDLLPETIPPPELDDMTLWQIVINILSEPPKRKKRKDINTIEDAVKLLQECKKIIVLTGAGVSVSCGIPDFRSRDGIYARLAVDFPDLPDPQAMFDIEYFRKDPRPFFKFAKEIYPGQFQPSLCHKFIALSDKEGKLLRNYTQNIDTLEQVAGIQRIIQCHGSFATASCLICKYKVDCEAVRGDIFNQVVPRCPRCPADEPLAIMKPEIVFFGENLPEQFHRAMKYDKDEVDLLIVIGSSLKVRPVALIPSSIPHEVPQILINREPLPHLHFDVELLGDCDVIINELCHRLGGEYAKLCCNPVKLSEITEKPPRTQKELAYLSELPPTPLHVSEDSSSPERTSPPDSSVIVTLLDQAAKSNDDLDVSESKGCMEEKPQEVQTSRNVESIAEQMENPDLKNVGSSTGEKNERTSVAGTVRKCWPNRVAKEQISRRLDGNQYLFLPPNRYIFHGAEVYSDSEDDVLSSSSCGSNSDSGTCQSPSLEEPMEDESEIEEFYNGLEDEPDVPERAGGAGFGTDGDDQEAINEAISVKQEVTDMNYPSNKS

Measured: Activity

CCOc1c(Cl)cc(C(=O)Nc2ccc(C(=O)O)c(C)c2)cc1OC(C)C
< 25%: [1] | [2] | [3] | [4] | [5] | Rattus norvegicus | [6] | [7] | [8] | Homo sapiens [9] | Homo sapiens [10] | [11] | [12] | [13] | [14] | [15] | Homo sapiens [16] | Caspase-3 (Homo sapiens) | [17]
